Assays:
[1] = tested on: formalin-induced inflammatory pain model; experiment: Formalin test; assay type: in vivo, mice; settings: for phase one nociceptive response: given alone, s.c.
Procedure: The formalin test was assessed as described by Dubuisson and Dennis ([Dubuisson and Dennis, 1977]) with minor modifications. Briefly, mice were allowed to acclimate for at least 30 min in the transparent plastic box before formalin injection. Each animal was injected with 10 μl of 5% formalin into the dorsal surface of the right hindpaw. Mice were then observed at 0–5 min (phase one) and at 11–60 min (phase two) after formalin, and the amount of time spent licking or biting the injected paw was recorded as the nociceptive response. Ro5-4864 or vehicle (5% DMSO) was administered s. c. 30 min prior to the formalin injection, and koumine was administered s. c. 40 min before formalin injection. To determine whether koumine potentiated the anti-inflammatory pain effects of Ro5-4864, koumine or its vehicle was injected 10 min before Ro5-4864 injection. Ro5-4864 was dissolved in DMSO and diluted in sterile physiological saline, and the final concentration of DMSO was 5%. Koumine was dissolved in sterile physiological saline directly. Animals were randomized for treatment and behavioral test were performed in a blinded manner.

rat model of CIA = experiment: Collagen-induced arthritis (CIA) model, MWT and hind paw volume; assay type: in vivo
Procedure: The induction of CIA in Lewis rats followed protocols and used reagents supplied by Chondrex. Bovine type II collagen (2 mg/ml in 0.05 M acetic acid) was emulsified with incomplete Freund’s adjuvant (IFA; Sigma-Aldrich) using an electric homogenizer equipped with a small blade. Equal volumes of collagen and IFA were mixed in an ice water bath, and collagen was added dropwise to the IFA at 1,000–3,000 rpm. […] Lewis rats were anesthetized and received 0.2 ml of collagen emulsion by subcutaneous injection at the base of the tail. Booster injections were given on day 7 of the study with 0.1 ml of emulsion. Immunized rats received Ro5-4864, koumine or vehicle for seven consecutive days beginning from day 29 after the first collagen injection. The mechanical withdrawal threshold (MWT) was determined on day 29 and day 35, the hind paw volume was determined on day 35, and was measured 60 min following the MWT measurement. Koumine or vehicle was injected s. c., and MWT values were determined 60 min after koumine injection. Ro5-4864 or vehicle was injected i. p., and MWT was determined 50 min after Ro5-4864 injection. To determine whether koumine potentiated the effects of Ro5-4864, koumine (1.0 mg/kg, s. c.) or vehicle was injected 10 min before Ro5-4864 (0.0625–1.0 mg/kg, i. p.) injection, and the MWT was determined 50 min after the last injection. Animals were randomized for treatment and behavioral test were performed in a blinded manner. Mechanical allodynia and edema measurement were measured using the procedures described below. Only rats with mechanical withdrawal threshold scores (calculated by mechanical withdrawal threshold of immunized rats/mechanical withdrawal threshold of normal rats) on day 28 after the first collagen injection >0.75 were used in the study.
(§1) Mechanical allodynia was measured using a commercially available electronic von Frey apparatus (Model 2,390; IITC Life Science Inc., Woodland Hills, CA) as described by Mitrirattanakul ([Mitrirattanakul et al., 2006]) with minor modifications. Rats were placed in a Plexiglas box on a steel mesh floor, and analyses were performed using an electronic von Frey apparatus. Stimulation was applied to the center of the hind paw in an upward motion of the von Frey filament until foot withdrawal occurred, and the withdrawal threshold was automatically recorded. The maximum strength of the filament used for von Frey testing was 55 g. The procedure was repeated three times at approximately 5 min intervals for each hind paw, and the MWT was calculated as the mean of the three latencies.
Arthritic edema was assessed by measuring the hind paw volume with a plethysmometer (Yi Yan Technology Development Co., Ltd.) according to the manufacturer’s recommendations.

rat model of CCI = experiment: Chronic constriction injury (CCI) model, MWT; assay type: in vivo
Source text: The rat CCI model of neuropathic pain was produced according to the method described by Bennett and Xie ([Bennett and Xie, 1988]). Adult male SD rats were anesthetized by isoflurane delivered by using the anesthetic machine. The right common sciatic nerve was isolated at the mid-thigh level and loosely ligated using four chromic gut (4–0) ties separated by intervals of 1 mm. For sham surgeries, the right sciatic nerve was exposed using the same procedure, but the nerve was not ligated. On the 9th day after surgery, Ro5-4864 or vehicle (5% DMSO) was administered i. p. 50 min before the measurement of mechanical allodynia, and koumine was administered s. c. 60 min before the measurement of mechanical allodynia. To determine whether koumine potentiated the analgesic effects of Ro5-4864, koumine (0.28 mg/kg, s. c.) or vehicle was injected 10 min before Ro5-4864 (0.0625–1.0 mg/kg, i. p.) injection on day 9 after CCI surgery, and the MWT was determined 50 min after the last injection. Animals were randomized for treatment and behavioral test were performed in a blinded manner. Mechanical allodynia was measured using the procedures described below. Only rats with mechanical withdrawal threshold scores (calculated by CCI ipsilateral paw mechanical withdrawal threshold/contralateral paw mechanical withdrawal threshold) on day 8 after CCI surgery >0.75 were used in the study.
as §1

[2] = acute administration alone on day 29
[3] = given alone daily day 29 to day 35, MWT on day 35

| SMILES | phase two nociceptive response ([1]; Ro5-4864 alone 0.00016–0.5 mg/kg s.c. 30 min before formalin) | phase one nociceptive response [1] | paw edema (hind paw volume) (rat model of CIA; Ro5-4864 alone at the highest dose tested, daily day 29 to day 35 i.p., day 35) | mechanical allodynia (MWT) (rat model of CIA; [2]) | mechanical allodynia (MWT) (rat model of CIA; [3]) | CCI-induced mechanical allodynia (MWT) (rat model of CCI; Ro5-4864 alone 0.0625–1.0 mg/kg i.p., 9 days after surgery) | modulation of Ro5-4864-mediated analgesic effect, phase two ([1]; 0.4 mg/kg koumine s.c. 10 min before 0.00016–0.02 mg/kg Ro5-4864 s.c.) | modulation of Ro5-4864-mediated analgesic response, first phase ([1]; 0.4 mg/kg koumine s.c. 10 min before Ro5-4864) | significant inhibition of second-phase nociceptive response ([1]; koumine alone 0.08 and 0.4 mg/kg s.c.) | second-phase nociceptive response ([1]; koumine alone 2.0 and 10 mg/kg s.c. 40 min before formalin) | modulation of Ro5-4864 antinociceptive effect (MWT) (rat model of CIA; acute coadministration of 1.0 mg/kg koumine s.c. and Ro5-4864 i.p., day 29) | modulation of Ro5-4864-mediated anti-edematogenic effect (hind paw volume) (rat model of CIA; koumine 1.0 mg/kg s.c. coadministered with Ro5-4864 0.25 mg/kg i.p., successive administration, day 35) | modulation of Ro5-4864-mediated analgesic effect (MWT) (rat model of CIA; koumine 1.0 mg/kg s.c. coadministered with Ro5-4864 0.125–1.0 mg/kg i.p., successive administration, day 35) | paw edema (hind paw volume) (rat model of CIA; koumine alone daily day 29 to day 35 s.c., day 35) | modulation of Ro5-4864-mediated antinociceptive activity (MWT) (rat model of CCI; 0.28 mg/kg koumine s.c. 10 min before 0.0625–0.5 mg/kg Ro5-4864 i.p., day 9) | notable antinociceptive effect on CCI-induced mechanical allodynia (MWT) (rat model of CCI; koumine alone 0.28 mg/kg s.c., day 9) | CCI-induced mechanical allodynia (MWT) (rat model of CCI; koumine alone 1.4 and 7.0 mg/kg s.c., day 9) |
| --- | --- | --- | --- | --- | --- | --- | --- | --- | --- | --- | --- | --- | --- | --- | --- | --- | --- |
| CN1C(=O)CN=C(c2ccc(Cl)cc2)c2cc(Cl)ccc21 [Ro5-4864, reference compound] | produced a dose-dependent antinociceptive effect | produced an antinociceptive effect | significantly inhibited paw edema | reduced mechanical allodynia | clearly reduced mechanical allodynia | inhibited CCI-induced mechanical allodynia in a dose-dependent manner |  |  |  |  |  |  |  |  |  |  |  |
| C=C[C@@]12CN(C)[C@H]3C[C@]14C(=Nc1ccccc14)[C@H]1C[C@@H]2[C@@H]3CO1 [koumine] |  | ineffective |  | dose-dependent inhibition effect | clearly reduced mechanical allodynia |  | significantly augment | did not increase | not | significantly inhibited the second-phase nociceptive response | clearly augmented the antinociceptive effect | notably increased | notably increased | did not produce an anti-edematogenic effect | significantly augmented | not | notable antinociceptive effects |
